According to patent US20140303152A1, “BENZOTHIAZINETHIONE DERIVATIVES AND PREPARATION METHODS AND USES THEREOF” (SICHUAN UNIVERSITY, priority 2011, published 2014):
Converted amounts (≈) assume the structure as drawn. “And” between values parts separate entries of the source, which are not always exact repeats. Identical values can stand only once. Like-named read-outs stand apart in the source and are kept apart here.

How the values were obtained:
293 cells = assay: Cytotoxicity test (MTT method); assay type: cell-based; conditions: Homo sapiens
[1] = Acute toxicity test of compound If, blood biochemical detection; assay type: in vivo; set-up: Blood urea nitrogen / Total cholesterol / Creatine kinase / Creatinine / Blood glucose / Triglyceride / Total bilirubin / Alanine aminotransferase / Aspartate aminotransferase: unit not given here
Protocol: • 1. Experimental method, 1) If, intraperitoneal suspension, at dose of 2.5 g/kg; 2) adjuvant: 1% sodium carboxymethylcellulose (CMC-Na), 1% tween-80; 3) 10 BABL/C male and female mice, 6-8 weeks old, and weight of 20±2 g. The 10 mice were randomly divided into 2 groups, 5 mice for each group, and a solvent control group is set. Single intraperitoneal injection of 2.5 g/kg was given to the (1) drug group and (2) solvent control group within 24 h; physical signs, behavioral activities, glandular secretion, breath, stool, genitals, death and other poisoning manifestations of the mice were constantly observed every 4 h after administration, and the mice were killed after observation for 24 h, 5) blood was taken from eyeballs, and then the mice were killed, 800 μl whole blood was taken, centrifuged at 1300 r/min for 15 min, and 200 μl supernatant serum was taken for blood biochemical detection, including the following evaluation indicators: aspartate aminotransferase (AST), alanine aminotransferase (ALT), creatine kinase (CK), alkaline phosphatase (ALP), blood urea nitrogen (BUN), total protein (TP), albumin (Alb), blood glucose (GLU), total bilirubin (T-BIL), creatinine (Crea), total cholesterol (Chol) and triglyceride (TG), with 12 items in total. • 2.

[2] = test system: Bacillus Calmette Guerin (BCG); assay type: in vivo, BABL/C mice; conditions: for Colony count results after treatment for 28 days (spleens and lungs): BCG-infected mice, FIG. 1; for Lung pathological examination, anti-BCG infection treatment effects: HE staining, FIG. 2
[3] = test system: mycobacterium tuberculosis H37Rv; assay: In vitro inhibition test on Mycobacterium tuberculosis (H37Rv); assay type: cell-based; conditions: for MIC99 / MIC90: Mycobacterium tuberculosis; for MIC99: 264 h; for inhibitory effects on mycobacterium tuberculosis (H37Rv): result in words
[4] = test system: Mycobacterium tuberculosis (H37Ra); assay: In vitro inhibition test on Mycobacterium tuberculosis (H37Ra); assay type: cell-based
[5] = HEK293, 293 cells, MTT, 48 h, read-out: IC50
[6] = serum of individual mice 6-10, If 2.5 g/kg i.p., 24 h
[7] = high dose group, 75 mg/kg i.p. once every day
[8] = low dose group, 25 mg/kg i.p. once every day
[9] = H37Rv, generally observed 11 days after inoculation, read-out: MIC99
[10] = H37Rv, generally observed 5-7 days after inoculation, read-out: MIC90

Structure (SMILES) | IC50 (293 cells; [5]) [µM] | MIC99 [3, 9] [µg/mL] | MIC90 [3, 10] [µg/mL] | inhibitory effects on mycobacterium tuberculosis (H37Rv) [3] | IC90 [4] [µM] | IC50 (293 cells; HEK293, 48 h) [µM] | MIC90 ([3]; H37RV) [µg/mL] | MIC99 ([3]; H37RV) [µg/mL] | further results
O=[N+]([O-])c1cc(C(F)(F)F)cc2c(=S)nc(N3CCC4(CC3)OCCO4)sc12 [Compound If, 8-nitro-2-(1,4-dio-8-aza[4.5]dec-8-yl)-6-(trifluoromethyl)-4H-benzo[e][1,3]thiazine-4-thione] | > 500 | 0.0312 (≈ 0.0721 µM) | 0.0312 (≈ 0.0721 µM) | equivalent to or even better than those of isoniazide | 0.1 |  |  |  | acute toxicity ([1]; 2.5 g/kg single intraperitoneal injection, mice, observation 24 h): no obvious acute toxicity; Alanine aminotransferase [1, 6]: 10 and 16 (2×) and 12 and 11; Albumin [1, 6]: 31.5 and 34.0 and 33.1 and 33.4 and 32.2; Alkaline phosphatase [1, 6]: 166 and 134 and 156 and 175 and 165; Aspartate aminotransferase [1, 6]: 145 and 148 and 149 and 156 and 169; Blood glucose [1, 6]: 6.3 and 4.3 and 4.9 and 4.5 and 5.1; Blood urea nitrogen [1, 6]: 6.7 and 5.5 and 6.3 and 8.9 and 7.9; Creatine kinase [1, 6]: 67 and 54 and 65 and 66 and 74; Creatinine [1, 6]: −12 (2×) and −6 and −15 and −4; Total bilirubin [1, 6]: −0.6 (2×) and −0.5 and −1.2 and −0.4; Total cholesterol [1, 6]: 3.35 and 3.21 and 3.34 and 3.53 and 3.14; Total protein [1, 6]: 70.1 and 65.6 and 66.7 and 73.8 and 65.7; Triglyceride [1, 6]: 2.10 and 1.80 and 2.53 and 2.17 and 2.24; Colony count results after treatment for 28 days (spleens and lungs) [2, 7]: slightly inferior to those of isoniazide, but obviously superior to those of the model group; Lung pathological examination, anti-BCG infection treatment effects [2, 7]: equivalent to those of the isoniazide (positive) control group; Colony count results after treatment for 28 days (spleens and lungs) [2, 8]: inhibitory effects on BCG growth of mouse spleens and lungs; Lung pathological examination, anti-BCG infection treatment effects [2, 8]: obviously superior to those of the solvent group, but inferior to the isoniazide (positive) control group and the If high dose group
Fc1cc2c(=S)nc(Nc3ccc(Br)cn3)sc2c(F)c1F [Ia, 2-(5-bromopyridine-2-amino)-6,7,8-trifluoro-4H-benzo[e][1,3]thiazine-4-thione] | > 500 | 16 (≈ 39.6 µM) | 8 (≈ 19.8 µM) |  |  |  |  |  | 
O=[N+]([O-])c1cc([N+](=O)[O-])c2sc(Nc3ccc(C(F)(F)F)cc3)nc(=S)c2c1 [Ib, 6,8-dinitro-2-(4-(trifluoromethyl)anilino)-4H-benzo[e][1,3]thiazine-4-thione] |  |  |  |  |  | > 500 | 4 (≈ 9.34 µM) | 16 (≈ 37.4 µM) | 
CCNc1nc(=S)c2cc([N+](=O)[O-])cc([N+](=O)[O-])c2s1 [Ic, 2-(ethylamino)-6,8-dinitro-4H-benzo[e][1,3]thiazine-4-thione] |  |  |  |  |  | > 500 | 2 (≈ 6.4 µM) | 8 (≈ 25.6 µM) | 
CNc1nc(=S)c2cc([N+](=O)[O-])cc([N+](=O)[O-])c2s1 [Id, 2-(methylamino)-6,8-dinitro-4H-benzo[e][1,3]thiazine-4-thione] |  |  |  |  |  | > 500 | 2 (≈ 6.7 µM) | 4 (≈ 13.4 µM) | 
O=[N+]([O-])c1cc([N+](=O)[O-])c2sc(N3CCCCC3)nc(=S)c2c1 [Ie, 6,8-dinitro-2-(piperidine-1-alkyl)-4H-benzo[e][1,3]thiazine-4-thione] |  |  |  |  |  | > 500 | 1 (≈ 2.84 µM) | 4 (≈ 11.4 µM) | 
O=[N+]([O-])c1cc([N+](=O)[O-])c2sc(N3CCOCC3)nc(=S)c2c1 [Ig, 2-morpholinyl-6,8-dinitro-4H-benzo[e][1,3]thiazine-4-thione] |  |  |  | equivalent to or even better than those of isoniazide | 0.8 | > 500 | 0.0625 (≈ 0.176 µM) | 0.125 (≈ 0.353 µM) | 
O=[N+]([O-])c1cc(C(F)(F)F)cc2c(=S)nc(N3CCOCC3)sc12 [Ih, 2-morpholinyl-8-nitro-6-(trifluoromethyl)-4H-benzo[e][1,3]thiazine-4-thione] | > 500 | 0.0312 (≈ 0.0828 µM) | 0.0312 (≈ 0.0828 µM) | equivalent to or even better than those of isoniazide | 0.8 |  |  |  | 
NNC(=O)c1ccncc1 [Isoniazide, reference compound] |  | 0.0625 (≈ 0.456 µM) | 0.0625 (≈ 0.456 µM) |  | 0.8 |  |  |  | 
